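The compound was tested at five concentrations on cells cultured in 96-well plates, with a 48-hour exposure period. TGI: concentration producing complete growth inhibition.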
What was measured:
Assay in all cases: DTP human tumour cell line panel, 48 h
[1] = test system: 786-0 renal
[2] = test system: A498 renal
[3] = test system: A549 NSCLC
[4] = test system: ACHN renal
[5] = test system: BT-549 breast
[6] = test system: CAKI-1 renal
[7] = test system: COLO 205 colon
[8] = test system: EKVX NSCLC
[9] = test system: HCC-2998 colon
[10] = test system: HCT-116 colon
[11] = test system: HCT-15 colon
[12] = test system: HL-60(TB) leukemia
[13] = test system: HOP-62 NSCLC
[14] = test system: HOP-92 NSCLC
[15] = test system: HT29 colon
[16] = test system: IGROV1 ovarian
[17] = test system: K-562 leukemia
[18] = test system: KM12 colon
[19] = test system: LOX IMVI melanoma
[20] = test system: M14 melanoma
[21] = test system: MALME-3M melanoma
[22] = test system: MCF7 breast
[23] = test system: MDA-MB-231 breast
[24] = test system: MDA-MB-435
[25] = test system: MDA-N
[26] = test system: MOLT-4 leukemia
[27] = test system: NCI-H226 lung
[28] = test system: NCI-H23 lung
[29] = test system: NCI-H460 lung
[30] = test system: NCI-H522 lung
[31] = test system: NCI/ADR-RES ovarian
[32] = test system: OVCAR-3 ovarian
[33] = test system: OVCAR-4 ovarian
[34] = test system: OVCAR-5 ovarian
[35] = test system: OVCAR-8 ovarian
[36] = test system: PC-3 prostate
[37] = test system: RPMI-8226 leukemia
[38] = test system: RXF 393 renal
[39] = test system: SF-268 CNS
[40] = test system: SF-295 CNS
[41] = test system: SF-539 CNS
[42] = test system: SK-MEL-2 melanoma
[43] = test system: SK-MEL-28 melanoma
[44] = test system: SK-MEL-5 melanoma
[45] = test system: SK-OV-3 ovarian
[46] = test system: SN12C renal
[47] = test system: SNB-19 CNS
[48] = test system: SNB-75 CNS
[49] = test system: T-47D breast
[50] = test system: TK-10 renal
[51] = test system: U251 CNS
[52] = test system: UACC-257 melanoma
[53] = test system: UACC-62 melanoma
[54] = test system: UO-31 renal

SMILES: CN(C)CCNC(=O)c1ccc(NCCCN(C)CCCNc2ccc3c(=O)n(CCN(C)C)c(=O)n4c5ccccc5c(=O)c2c34)c2c(=O)c3ccccc3[nH]c12
- TGI [1]: 110 nM
- TGI [2]: 415 nM
- TGI [3]: 164 nM
- TGI [4]: 653 nM
- TGI [5]: 1250 nM
- TGI [6]: 1060 nM
- TGI [7]: 353 nM
- TGI [8]: 567 nM
- TGI [9]: 146 nM
- TGI [10]: 70.4 nM
- TGI [11]: 1310 nM
- TGI [12]: 273 nM
- TGI [13]: 309 nM
- TGI [14]: 2920 nM
- TGI [15]: 161 nM
- TGI [16]: 1160 nM
- TGI [17]: 1060 nM
- TGI [18]: 319 nM
- TGI [19]: 119 nM
- TGI [20]: 670 nM
- TGI [21]: 453 nM
- TGI [22]: 344 nM
- TGI [23]: 234 nM
- TGI [24]: 180 nM
- TGI [25]: 199 nM
- TGI [26]: 1100 nM
- TGI [27]: 665 nM
- TGI [28]: 270 nM
- TGI [29]: 29.6 nM
- TGI [30]: 168 nM
- TGI [31]: 3320 nM
- TGI [32]: 230 nM
- TGI [33]: 197 nM
- TGI [34]: 680 nM
- TGI [35]: 885 nM
- TGI [36]: 249 nM
- TGI [37]: 157 nM
- TGI [38]: 271 nM
- TGI [39]: 326 nM
- TGI [40]: 1060 nM
- TGI [41]: 2460 nM
- TGI [42]: 228 nM
- TGI [43]: 1340 nM
- TGI [44]: 1220 nM
- TGI [45]: 411 nM
- TGI [46]: 262 nM
- TGI [47]: 523 nM
- TGI [48]: 44.9 nM
- TGI [49]: 1890 nM
- TGI [50]: 687 nM
- TGI [51]: 257 nM
- TGI [52]: 718 nM
- TGI [53]: 239 nM
- TGI [54]: 301 nM
